Consider 19 molecules from patent publication US9790351B2, “Fat-binding compositions” (Eastpond Laboratories Limited, priority 2010, dated 2017).

Structures can show the parent of a compound that is named as a salt.

The nature of series [1]: Phase-solubility study of binding constant (Higuchi et al.). The following applies: in water, 1:1 complex. From the text: The resulting 1:1, molar ratio betanin/alpha-cyclodextrin inclusion complex was a red colored, free flowing powder containing 32% betanin by weight, as determined by visible spectrophotometry. […] N. Reilly, Wiley, New York, 1965. vol. 4. pp. 117-212, the complete disclosure of which is hereby incorporated by reference for all purposes. The binding constant of the complex was Kass=85-105 M^−1

The nature of series [2]: Binding constants of flavorants, microcalorimetric method and GC flavorant retention. From the text: The tested compounds included those that are generally soluble or miscible in water. The complexes with the cyclodextrins were formed using methods corresponding to the two specifically described examples below involving apricot flavorant and banana flavorant.
Two types of methods were used to determine the apparent binding constants noted above. The “microcalorimetric” method was used as described in Lewis et al., “Thermodynamics of binding of guest molecules to alpha- and beta-cyclodextrins,” J. Chem. Soc. Perkin. Trans. 2, (15) pp. 2081-2085, 1973, the complete disclosure of which is hereby incorporated by reference for all purposes. Also, by measuring the flavorant retention in the inclusion complexes and the corresponding mechanical mixtures (identical composition except that linear dextrin is used in place of cyclodextrins) with gas chromatography, according to the method described by Reineccius et al., “Encapsulation of flavors using cyclodextrins: comparison of flavor retention in alpha, beta, and gamma types,” Journal of Food Science, 67(9), pp. 3271-3279 (2002), the complete disclosure of which is hereby incorporated by reference for all purposes.

Series [3] is described as follows: Association constants by capillary electrophoresis. In kind it is binding. The following applies: for Association constant, α-Cyclodextrin / Association constant, β-Cyclodextrin / Association constant, γ-Cyclodextrin: aqueous system, mean of three parallel determinations. The procedure:
The association or binding constants of several selected weak complex-forming guest molecules with alpha-, beta- and gamma-cyclodextrins were experimentally determined. Capillary electrophoresis was utilized to determine the complex binding constants of selected dietary supplements thiamine, niacin and L-arginine in aqueous systems. The following values were determined:
Similarly, capillary electrophoresis was utilized to determine the complex binding constants of selected flavorants ethyl acetate, isoamyl acetate, diacetyl, and N,N-dimethyl formamide with alpha-, beta- and gamma-cyclodextrins.

A short description of series [4]: Apparent binding constant determined by chromatography. The following applies: in water at 25° C. The procedure:
Also, the apparent binding constant of the alpha-cyclodextrin N-tert-butyl-hydroxylamine complex was determined by chromatography.

Series [5] in a line: Laser light scattering particle size distribution of dissolved alpha-cyclodextrin (aggregation). Type of series: physicochemical. From the text:
These solutions were then subjected to laser light scattering to determine the distribution of particle sizes in each solution. […] Cyclodextrin molecules in a less aggregated form likely include more available binding sites for complex formation. This experiment thus provides evidence that is consistent with the conclusion that carbonation allows for the availability of more cyclodextrin binding sites for forming complexes with fats.

The nature of series [6]: Fat binding by a mixture of alpha-, beta- and gamma-cyclodextrins in water (precipitated inclusion complex). The settings on record: 0.01M each cyclodextrin and palmitic acid, 4 hours, ambient temperature. From the text:
This reaction mixture was stirred for four hours at ambient temperature. […] The precipitate was removed by centrifugation.

For series [7] the following is noted: cited from earlier work.
Another series has as its system HepG2 cells. The settings on record: cited from earlier work.

With `O=C(O)C1=C/C(=C/C=[N+]2/c3cc(O)c(OC4OC(CO)[C@@H](O)C(O)C4O)cc3CC2C(=O)[O-])CC(C(=O)O)N1` (stereo in doubt) [betanin], the “binding constant Kass” value in series [1] lay in the range of 85 to 105 M⁻¹.
On to `CCCCCOC(C)=O` [Amyl acetate], for which, in series [2], the “Calculated Binding Constants, complex formed with alpha-cyclodextrin” value was 85 M⁻¹ and the “Calculated Binding Constants, complex formed with beta-cyclodextrin” value was 40 M⁻¹.
In the same order, the values of `CCCCOC(C)=O` [Butyl acetate] are 72 M⁻¹ and 85 M⁻¹.
As for `CCOC(C)=O` [Ethyl acetate], in series [2], the “Calculated Binding Constants, complex formed with alpha-cyclodextrin” value was 60 M⁻¹ and the “Calculated Binding Constants, complex formed with beta-cyclodextrin” value was 100 M⁻¹. In addition, in series [3], the “Association constant K, α-Cyclodextrin” value amounted to 37 M⁻¹; the “Association constant K, β-Cyclodextrin” value worked out at 10 M⁻¹; the “Association constant K, γ-Cyclodextrin” value came to 9 M⁻¹.
As for `N=C(N)NCCC[C@H](N)C(=O)O` [L-arginine], in series [3], the “Association constant, α-Cyclodextrin” value came out at 21 ± 2; the “Association constant, β-Cyclodextrin” value was determined as 100 ± 5; the “Association constant, γ-Cyclodextrin” value worked out at 9 ± 2.
With `CC(C)(C)NO` [N-tert-butyl-hydroxylamine], the apparent binding constant in series [4] lay within 80 to 105 M⁻¹.
Regarding `O=C(O)c1cccnc1` [Nicotinic acid], in series [3], the “Association constant, α-Cyclodextrin” value is 17 ± 2; the “Association constant, β-Cyclodextrin” value came out at 37 ± 3; the “Association constant, γ-Cyclodextrin” value worked out at 10 ± 2.
Turning to `Cc1ncc(C[n+]2csc(CCO)c2C)c(N)n1` [Thiamine HCl], in series [3], the “Association constant, α-Cyclodextrin” value is recorded as 20 ± 2; the “Association constant, β-Cyclodextrin” value is listed as 73 ± 3; the “Association constant, γ-Cyclodextrin” value was found to be 8 ± 1.
On to `C=CCOC(=O)CCC` [allyl butyrate], for which, in series [2], the “Calculated Binding Constants, complex formed with alpha-cyclodextrin” value is 45 M⁻¹ and the “Calculated Binding Constants, complex formed with beta-cyclodextrin” value is 34 M⁻¹.
Consider `OC[C@H]1O[C@@H]2O[C@H]3[C@H](O)[C@@H](O)[C@@H](O[C@H]4[C@H](O)[C@@H](O)[C@@H](O[C@H]5[C@H](O)[C@@H](O)[C@@H](O[C@H]6[C@H](O)[C@@H](O)[C@@H](O[C@H]7[C@H](O)[C@@H](O)[C@@H](O[C@H]1[C@H](O)[C@H]2O)O[C@@H]7CO)O[C@@H]6CO)O[C@@H]5CO)O[C@@H]4CO)O[C@@H]3CO` [alpha-cyclodextrin], for which the “particle size of cyclodextrin particles” value in series [5] (2% w/v in carbonated water) is reported as less than 500 nm. In addition, the “particle size of the majority of cyclodextrin particles” value in series [5] (2% w/v in non-carbonated tap water) is ~1,000 nm. The “share of the cyclodextrin/palmitic acid complex in the precipitated complex” value in series [6] was “about 78%”.
For the molecule `CCCCCOC(=O)CCCC` [amyl valerate], in series [2], the “Calculated Binding Constants, complex formed with alpha-cyclodextrin” value is 67 M⁻¹ and the “Calculated Binding Constants, complex formed with beta-cyclodextrin” value is 45 M⁻¹.
For `CCCCOC(=O)CC(C)C` [butyl isovalerate] the same measures were 95 M⁻¹ and 110 M⁻¹.
In the case of `CN(CC(=O)O)C(=N)N` [creatine], in series [7] (diet supplementation, compared with placebo), the intelligence result is recorded as “significantly increased intelligence”. Also, in series [7] (elderly), the cognitive ability result is recorded as “improved cognitive ability”.
For the molecule `CC(=O)C(C)=O` [diacetyl], in series [3], the “Association constant K, α-Cyclodextrin” value was 28 M⁻¹; the “Association constant K, β-Cyclodextrin” value was found to be 43 M⁻¹; the “Association constant K, γ-Cyclodextrin” value turned out to be 58 M⁻¹.
On to `CCCCC(=O)OCC` [ethyl valerate], for which, in series [2], the “Calculated Binding Constants, complex formed with alpha-cyclodextrin” value was 46 M⁻¹ and the “Calculated Binding Constants, complex formed with beta-cyclodextrin” value was 80 M⁻¹.
Take `OC[C@H]1O[C@@H]2O[C@H]3[C@H](O)[C@@H](O)[C@@H](O[C@H]4[C@H](O)[C@@H](O)[C@@H](O[C@H]5[C@H](O)[C@@H](O)[C@@H](O[C@H]6[C@H](O)[C@@H](O)[C@@H](O[C@H]7[C@H](O)[C@@H](O)[C@@H](O[C@H]8[C@H](O)[C@@H](O)[C@@H](O[C@H]9[C@H](O)[C@@H](O)[C@@H](O[C@H]1[C@H](O)[C@H]2O)O[C@@H]9CO)O[C@@H]8CO)O[C@@H]7CO)O[C@@H]6CO)O[C@@H]5CO)O[C@@H]4CO)O[C@@H]3CO` [gamma-cyclodextrin]: the “share of the cyclodextrin/palmitic acid complex in the precipitated complex” value in series [6] is on record as “undetectable amounts”.
Consider `CC(=O)OCCC(C)C` [isoamyl acetate], for which, in series [3], the “Association constant K, α-Cyclodextrin” value stood at 729 M⁻¹; the “Association constant K, β-Cyclodextrin” value was determined as 382 M⁻¹; the “Association constant K, γ-Cyclodextrin” value came to 32 M⁻¹.
Regarding `Cc1occc(=O)c1O` [maltol], in series [2], the “Calculated Binding Constants, complex formed with alpha-cyclodextrin” value was 70 M⁻¹ and the “Calculated Binding Constants, complex formed with beta-cyclodextrin” value is 98 M⁻¹.
As for `NCCS(=O)(=O)O` [taurine], in the series on HepG2 cells, the “secretion of apolipoprotein and lipids” value was “reduce the secretion of apolipoprotein 8100 and lipids”.
